From patent publication US20140030346A1, “DISINTEGRABLE CORE PARTICLE FOR PHARMACEUTICAL PREPARATION” (priority 2010, published 2014)

Legend:
[1] = Dissolution test, ibuprofen (paddle method, JP second fluid pH 6.8); type: physicochemical; conditions: JP second fluid pH 6.8, 37° C., 75 rpm
Procedure: (§1) Dissolution tests were carried oat, according to the procedures shown in Tables 6 to 8 and described below, on pharmaceutical preparations composed of the drug-containing particles obtained in Examples 11 and 12. The results are shown in Tables 9 and 10 and in FIGS. 14 and 15.
The liquid sampled in the dissolution test is used directly as the sample solution. Analysis according to “2.01 Liquid Chromatography” is carried out on this sample solution. Testing of the ibuprofen content in the sample solution is carried out under the conditions indicated in (1) above.
In a separate operation, 25 mg of ibuprofen reference is precisely weighed out and dissolved in acetonitrile while bringing the volume up to exactly 50 mL. Next, 5 mL of this solution is precisely measured out and JP second fluid is added so as to bring the volume up to exactly 25 mL, thereby giving a reference solution (about 100 ppm). In a separate operation, 5 mL of this solution is precisely measured out and JP second fluid is added so as to bring the volume up to 50 mL, thereby giving a 50 ppm reference solution. Next, 10 mL of this solution is precisely measured out and JP second fluid is added so as to bring the volume up to exactly 25 mL, thereby giving a […] reference solution. Liquid chromatography is carried out on these reference solutions, and the slopes (a) and intercepts (t) of the straight lines obtained by plotting the peak areas and concentrations of the ibuprofen references are determined. The dissolution rate is determined by entering the content B in the sample solution into the following formula: […]

[2] = Dissolution test, rabeprazole (paddle method, tris buffer pH 8.0); type: physicochemical; conditions: tris buffer pH 8.0, 37° C., 50 rpm
Procedure: as §1
First, 20 mg of rabeprazole sodium is precisely weighed cut and dissolved by adding 30 mL of an aqueous NaOH solution (0.5 M), after which 45 mL of methanol is added, then the volume is brought up to exactly 100mL with a water-methanol solution (2:3). Two mL of this solution is precisely measured out and brought up to exactly 100 mL with a water-methanol solution (2:3), thereby giving a 4 ppm reference solution. In a separate procedure, 2 mL of the same solution is precisely measured out and brought up to a volume of exactly 200 mL with a water-methanol solution (2:3), thereby giving a 2 ppm reference solution. Liquid chromatography is carried on these reference solutions, and the slopes (a) and intercepts (t) of the straight lines obtained by plotting the peak areas and concentrations of rabeprazole are determined.
One milliliter of an aqueous NaOH solution (0.5 M) is added to 5 mL of the sample solution at each sampling time, and the resulting solution is thoroughly mixed. Next, 4 mL of this solution is precisely measured out, then 2 mL of an aqueous NaOH solution (0.5 M) and 8 mL of methanol are added, following which the volume is brought up to exactly 20 mL with a water-methanol solution (2:3). Liquid chromatography is then carried cut under the conditions described above, and the peak area (Qt) for rabeprazole is determined. Both the reference solutions and the sample solution are used as injection solutions after filtration with a membrane filter having a pore sire of 0.2 μm.
Dissolution rate (%)=(Qt−t)/a×5×6/5×900/1,000/amount of rabeprazole Na collected (mg)×100

SMILES | Dissolution rate ([1]; dissolution time 5 min) | Dissolution rate ([1]; dissolution time 10 min) | Dissolution rate ([1]; dissolution time 15 min) | Dissolution rate ([1]; dissolution time 20 min) | Dissolution rate ([1]; dissolution time 30 min) | Dissolution rate ([1]; dissolution time 60 min) | Dissolution rate ([2]; dissolution time 5 min) | Dissolution rate ([2]; dissolution time 10 min) | Dissolution rate ([2]; dissolution time 15 min) | Dissolution rate ([2]; dissolution time 20 min) | Dissolution rate ([2]; dissolution time 30 min) | Dissolution rate ([2]; dissolution time 60 min)
CC(C)Cc1ccc(C(C)C(=O)O)cc1 (stereo not drawn) [IBP-Ref., Ibuprofen] | 49.5% | 77.3% | 83.4% | 86.0% | 89.6% | 95.0% | – | – | – | – | – | –
COCCCOc1ccnc(C[S+]([O-])c2nc3ccccc3[nH]2)c1C (stereo not drawn) [RBP-Ref., Rabeprazole Na] | – | – | – | – | – | – | 78.6% | 86.0% | 87.1% | 87.5% | 85.5% | 78.4%
